We go through 36 compounds from patent publication US20240245617A1, “LIPID-BASED TOPICAL INJECTION FORMULATIONS” (Beijing Jitai Pharmaceutical Technology Co., Ltd., priority 2022, published 2024).

Tested on in one data set: not listed separately
Briefly: Encapsulation efficiency of lipid nanoparticles, Quant-it RiboGreen RNA Assay. Type of data set: physicochemical. Particulars: LNP ionizable lipid/cholesterol/DSPC/DMG-PEG2000 50/38.5/10/1.5 mol%, N/P 6, luciferase mRNA. The procedure: (§1) The particle size and particle size dispersity index (polydispersity index, PDI) of the prepared lipid nanoparticles were measured using a Zetasizer Pro (purchased from Malvern Instruments Ltd) and a DynaPro NanoStar (purchased from Wyatt) dynamic light scattering instrument. The degree of RNA encapsulation by lipid nanoparticles was characterized by the Encapsulation Efficiency %, which reflects the degree of binding of lipid nanoparticles to RNA fragments. This parameter was measured by the method of Quant-it™ RiboGreen RNA Assay (purchased from Invitrogen). Lipid nanoparticle samples were diluted in TE buffer (10 mM Tris-HCl, 1 mM EDTA, pH=7.5). A portion of the sample solution was removed, to which 0.5% Triton (Triton X-100) was added, and then allowed to stand at […] for 30 minutes. Immediately after the addition of RIBOGREEN® reaction solution, the fluorescence values were read on a Varioskan LUX multifunctional microplate reader (purchased from Thermofisher) at 485 nm for absorption and 528 nm for emission to give the encapsulation efficiency values.
The produced lipid nanoparticles were characterized using the same method as in Assay example 2, and the results are shown in Table 6 (the percentage content of each component is represented by molar percentage).
For the compound `CCCC/C=C\CCCCOC(=O)C(C)(C)CCCCCC(CCCCCC(C)(C)C(=O)OCCCC/C=C\CCCC)OC(=O)CCCN(C)C` [Compound 28], the “Encapsulation efficiency (%)” value is given as 80.36%.
As to `CCCCCCCCCSC(=O)C(C)(C)CCCCCC(CCCCCC(C)(C)C(=O)OCC#CC(CCCC)CCCC)OC(=O)CCCN(C)C` (stereo not drawn) [Compound 119], the “Encapsulation efficiency (%)” value stood at 86.92%.

Tested on in a further data set: not listed separately
Nature of the data set: Particle size and PDI of lipid nanoparticles by dynamic light scattering. In kind it is physicochemical. Particulars: LNP ionizable lipid/cholesterol/DSPC/DMG-PEG2000 50/38.5/10/1.5 mol%, N/P 6, luciferase mRNA. The procedure:
as §1
The preparation of lipid nanoparticles includes microfluidic mixing system, but is not limited to this method, which also includes T-type mixer and ethanol injection method, etc.
Regarding `CCCC/C=C\CCCCOC(=O)C(C)(C)CCCCCC(CCCCCC(C)(C)C(=O)OCCCC/C=C\CCCC)OC(=O)CCCN(C)C` [Compound 28], the “Particle size (nm)” value stood at 138.16 nm and the “Particle size dispersity (PDI)” value came to 0.06.
For `CCCCCCCCCSC(=O)C(C)(C)CCCCCC(CCCCCC(C)(C)C(=O)OCC#CC(CCCC)CCCC)OC(=O)CCCN(C)C` (stereo not drawn) [Compound 119], in that order: 80.98 nm and 0.05.

A further data set deals with C57BL/6 mice. Nature of the data set: In vivo bioluminescence after intravenous administration of lipid nanoparticles encapsulating luciferase mRNA. Particulars: 0.5 mg/kg mRNA, liver. The procedure: The delivery effect and safety of nanoparticles encapsulating luciferase mRNA (Trilink, L-7202) in mice were evaluated. The test mice were SPF-grade C57BL/6 mice, female, 6-8 weeks old, weighing 18-22 g, and were purchased from SPF (Beijing) Biotechnology Co., Ltd. All animals were acclimatized for more than 7 days prior to the experiment, and had free access to food and water during the experiment. The conditions include alternating light and dark for 12/12 h, the indoor temperature of 20-26° C. and the humidity of 40-70%. The mice were randomly grouped. The lipid nanoparticles encapsulating luciferase mRNA prepared above were injected into mice by intravenous administration at a single dose of 0.5 mg/kg mRNA, and the mice were subjected to in vivo bioluminescence assay using a Small Animal In Vivo Imaging System (IVIS LUMINA III, purchased from PerkinElmer) at 6 h after administration. The assay was performed as follows: D-luciferin solution was prepared in saline at a concentration of 15 mg/mL, and each mouse was given the substrate by intraperitoneal injection. At ten minutes after administration of the substrate, the mice were anesthetized in an anesthesia chamber with isoflurane at a concentration of 2.5%. […] Data acquisition and analysis were performed on the liver.
The in vivo delivery efficiency of lipid nanoparticle carriers was expressed as the mean values of fluorescence intensity and total photon count in different animals within the same subject group, as shown in Table 4. Higher values of fluorescence intensity and total photon count indicate higher in vivo delivery efficiency of this mRNA fragment by lipid nanoparticles. The lipid nanoparticles containing the cationic lipids of the present disclosure have good in vivo delivery efficiency and mainly target the liver.
As for `CCCC/C=C\CCCCOC(=O)C(C)(C)CCCCCC(CCCCCC(C)(C)C(=O)OCCCC/C=C\CCCC)OC(=O)CCCN(C)C` [Compound 28], the “Total photon count in vivo at 6 hours after administration (Total Flux)” value (“Total photon count in vivo at 6 hours” for short) is reported as 3.21E+09.
Same read-out and setting: in the case of `CCCCCCCCCCSC(=O)C(C)(C)CCCCCC(CCCCCC(C)(C)C(=O)SCCCCCCCCCC)OC(=O)CCCCCN(C)C` [Compound 36] it was 4.84E+09.
Same read-out and setting: in the case of `CCCCCCCCCSC(=O)C(C)(C)CCCCCC(CCCCCC(C)(C)C(=O)SCCCCCCCCC)OC(=O)CCCN(C)C` [Compound 37] it was 7.88E+09; in that of `CCCCCCCCCCSC(=O)C(C)(C)CCCCCC(CCCCCC(C)(C)C(=O)OCCCCCCCCC)OC(=O)CCCN(C)C` (stereo not drawn) [Compound 40], 4.22E+09.
The same measure, in the same setting: in the case of `CCCCCCCCCOC(=O)C(C)(C)CCCCCC(CCCCCC(C)(C)C(=O)SCCCCCCCCC)OC(=O)CCCN(C)C` (stereo not drawn) [Compound 41] it was 2.19E+10.
As to `CCCCCCC#CCOC(=O)C(C)(C)CCCCCC(CCCCCC(C)(C)C(=O)OCCCCCCCCC)OC(=O)CCCN(C)C` (stereo not drawn) [Compound 42], the “Total photon count in vivo at 6 hours” value stood at 5.32E+09.
The same measure, in the same setting: in the case of `CCCCCCCCCOC(=O)C(C)(C)CCCCCC(CCCCCC(C)(C)C(=O)OCC(CCCCC)CCCCCCC)OC(=O)CCCN(C)C` (stereo not drawn) [Compound 46] it was greater than 4.00E+10; in that of `CCCCCCCCCCOC(=O)C(C)(C)CCCCCC(CCCCCC(C)(C)C(=O)OCCCCCCCCCC)OC(=O)CCN1CCOCC1` [Compound 90], 1.04E+07; in that of `CCCCCCCCCCOC(=O)C(C)(C)CCCCCC(CCCCCC(C)(C)C(=O)OCCCCCCCCCC)OC(=O)CN1CCOCC1` [Compound 91], 1.29E+06.
Same read-out and setting: in the case of `CCCCCCCCCCOC(=O)C(C)(C)CCCCCC(CCCCCC(C)(C)C(=O)OCCCCCCCCCC)OC(=O)CCN1CCCC1` [Compound 92] it was 2.13E+09.
Same read-out and setting: in the case of `CCCCCCC/C=C\COC(=O)CC(C)(C)CCCCC(CCCCC(C)(C)CC(=O)OCC(CCCCC)CCCCCCC)OC(=O)CCCN(C)C` (stereo not drawn) [Compound 98] it was 2.12E+10; in that of `CCCCCCCCOC(=O)C(C)(C)CCCCCC(CCCCCC(C)(C)C(=O)OCCCCCCCC)OC(=O)C1CCN(C)CC1` [Compound 100], 1.18E+10.
Turning to `CCCCCCCCOC(=O)C(C)(C)CCCCCC(CCCCCC(C)(C)C(=O)OCCCCCCCC)OC(=O)C1CCN(C(C)C)CC1` [Compound 101], the “Total photon count in vivo at 6 hours” value was determined as 5.19E+09.
On the same count and under the same terms, in the case of `CCCCCCCCCOC(=O)C(C)(C)CCCCCC(CCCCCC(C)(C)C(=O)OCCCCCCCCC)OC(=O)C1CCN(C)CC1` [Compound 102] it was 2.03E+10; in that of `CCCCCCCCCOC(=O)C(C)(C)CCCCCC(CCCCCC(C)(C)C(=O)OCCCCCCCCC)OC(=O)C1CCN(C(C)C)CC1` [Compound 103], 5.69E+09; in that of `CCCCCCCCCCSC(=O)C(C)(C)CCCCCC(CCCCCC(C)(C)C(=O)SCCCCCCCCCC)OC(=O)C1CCN(C)CC1` [Compound 104], 2.61E+10.
Same read-out and setting: in the case of `CCCCCCCCCCSC(=O)C(C)(C)CCCCCC(CCCCCC(C)(C)C(=O)SCCCCCCCCCC)OC(=O)C1CCN(C(C)C)CC1` [Compound 105] it was 3.33E+09; in that of `CCCCCCCCCSC(=O)C(C)(C)CCCCCC(CCCCCC(C)(C)C(=O)SCCCCCCCCC)OC(=O)C1CCN(C)CC1` [Compound 106], 1.85E+10.
On to `CCCCCCCCCSC(=O)C(C)(C)CCCCCC(CCCCCC(C)(C)C(=O)SCCCCCCCCC)OC(=O)C1CCN(C(C)C)CC1` [Compound 107], for which the “Total photon count in vivo at 6 hours” value came to 1.36E+10.
As to `CCCCCCCCCSC(=O)C(C)(C)CCCCCC(CCCCCC(C)(C)C(=O)SCCCCCCCCC)OC(=O)CC1CCN(C)CC1` [Compound 108], the “Total photon count in vivo at 6 hours” value was 1.21E+10.
The same measure, in the same setting: in the case of `CCCCCCCCCSC(=O)C(C)(C)CCCCCC(CCCCCC(C)(C)C(=O)SCCCCCCCCC)OC(=O)CC1CCN(CC)CC1` [Compound 109] it was 1.32E+10; in that of `CCCCCCCCCOC(=O)C(C)(C)CCCCCC(CCCCCC(C)(C)C(=O)OCC(CCCCC)CCCCCCC)OC(=O)CC1CCN(C)CC1` (stereo not drawn) [Compound 111], 1.79E+10.
Same read-out and setting: in the case of `CCCCCCCCCSC(=O)C(C)(C)CCCCCC(CCCCCC(C)(C)C(=O)OCC(CCCCC)CCCCCCC)OC(=O)CC1CCN(C)CC1` (stereo not drawn) [Compound 112] it was 3.53E+10; in that of `CCCCCCCC#CCOC(=O)C(C)(C)CCCCCC(CCCCCC(C)(C)C(=O)OCCCC(CCCCC)CCCCC)OC(=O)CCCN(C)C` (stereo not drawn) [Compound 115], 2.56E+10; in that of `CCCCCCCC#CCOC(=O)C(C)(C)CCCCCC(CCCCCC(C)(C)C(=O)OCC(CCCCC)CCCCCCC)OC(=O)CCCN(C)C` (stereo not drawn) [Compound 116], greater than 4.00E+10.
`CCCCC(CC#CCOC(=O)C(C)(C)CCCCCC(CCCCCC(C)(C)C(=O)OCC#CCC(CCCC)CCCC)OC(=O)CCCN(C)C)CCCC` [Compound 117]: the “Total photon count in vivo at 6 hours” value was determined as 4.48E+09.
The same measure, in the same setting: in the case of `CCCCCCCCCOC(=O)C(C)(C)CCCCCC(CCCCCC(C)(C)C(=O)OCC#CC(CCCCCC)CCCCCC)OC(=O)CCCN(C)C` (stereo not drawn) [Compound 118] it was 3.14E+10.
The same measure, in the same setting: in the case of `CCCCCCCCCSC(=O)C(C)(C)CCCCCC(CCCCCC(C)(C)C(=O)OCC#CC(CCCC)CCCC)OC(=O)CCCN(C)C` (stereo not drawn) [Compound 119] it was 3.25E+10; in that of `CCCCCCCCCOC(=O)C(C)(C)CCCCC(CCCCC(C)(C)C(=O)OCC(CCCCC)CCCCCCC)OC(=O)CCCN(C)C` (stereo not drawn) [Compound 122], greater than 4.00E+10; in that of `CCCCCCCCCCOC(=O)C(C)(C)CCCCC(CCCCC(C)(C)C(=O)OCC(CCCCC)CCCCCCC)OC(=O)CCCN(C)C` (stereo not drawn) [Compound 123], greater than 4.00E+10.
The same measure, in the same setting: in the case of `CCCCCCCCCOC(=O)C(C)(C)CCCCCCC(CCCCCCC(C)(C)C(=O)OCC(CCCCC)CCCCCCC)OC(=O)CCCN(C)C` (stereo not drawn) [Compound 125] it was 1.99E+10.
With `CCCCCCCCCOC(=O)C(C)(C)CCCCCCC(CCCCCCC(C)(C)C(=O)OCC(CCCCC)CCCCCCC)OC(=O)CCCCN(C)C` (stereo not drawn) [Compound 126], the “Total photon count in vivo at 6 hours” value is given as 1.77E+10.
Still for that read-out and setting: in the case of `CCCCCCC(CCCCCC)CCOC(=O)CCC(C)(C)CCCC(CCCC(C)(C)CCC(=O)OCCC(CCCCCC)CCCCCC)OC(=O)CCCN(C)C` [Compound 128] it was 1.00E+10; in that of `CCCCCCCC(CCCCCCC)COC(=O)CCC(C)(C)CCCC(CCCC(C)(C)CCC(=O)OCC(CCCCCCC)CCCCCCC)OC(=O)CCCN(C)C` [Compound 129], 7.82E+09.
The same measure, in the same setting: in the case of `CCCCCCCCCOC(=O)CCCCCCC(CCCCCCC(=O)OCCCCCCCCC)OC(=O)CCCN(C)C` [Compound 130] it was 4.45E+07; in that of `CCCCCCCCCOC(=O)CCCCCCC(CCCCCCC(=O)OCC(CCCCC)CCCCCCC)OC(=O)CCCN(C)C` (stereo not drawn) [Compound 131], 1.57E+09.
